{
  "source": "patent US10696686B2",
  "about": "“Herbicidally active (alkynyl-phenyl)-substituted cyclic dione compounds and derivatives thereof” (Syngenta Limited, priority 2013, dated 2020)",
  "assay_type_in_all_cases": "in vivo",
  "key": {"[1]": {"tested_on": "grassy (in particular warm climate grassy) monocotyledonous weeds", "assay": "Post-emergence herbicidal activity, summary statements on Biological Examples 1 to 3", "conditions": "applied at about 250 g/ha post-emergence; Biological Examples 1 and 2", "experimental": "(§1) Seeds of a variety of test plant species were sown in standard soil ** in pots. After cultivation for one day (pre-emergence) or after 8 days cultivation (post-emergence) under controlled conditions in a glasshouse (at 24/16° C., day/night; 14 hours light; 65% humidity), the plants were sprayed with an aqueous spray solution derived from the formulation of the technical active ingredient (the test herbicide) in acetone/water (50:50) solution containing 0.5% Tween 20 (polyoxyethylene sorbitan monolaurate, CAS Reg. No. 9005-64-5). The test plants were then grown on under controlled conditions in a glasshouse (at 24/16° C., day/night; 14 hours light; 65% humidity) and watered twice daily. 13 Days after application of the test herbicide, for pre- and post-emergence, the test was evaluated visually for percentage phytotoxicity to each plant (where 100%=total damage to plant; 0%=no damage to plant). Generally, each test herbicide is only tested on 1 plant per plant species for each application rate tested and for each application timing. ** The “standard soil” in Biological Example 1 is usually a “sand” or “sandy loam” type of soil.\nSeeds of a variety of monocotyledonous and dicotyledonous test plants are sown in standard soil in pots. The plants are cultivated for one day (for pre-emergence) or for about 12 days (range=10-13 days) (for post-emergence) under controlled conditions in a glasshouse (warm climate species at 24/18° C., cool climate species at 20/16° C., both at day/night; 16 hours light; 65% humidity). An “instant formulation”, known as the “IF50”, containing 50 g/litre (i.e. 5% w/v) of the “technical” (i.e. unformulated) active ingredient is prepared by dissolving the active ingredient in a mixture of organic solvents and emulsifier, details of which are provided in the Table below. […]\nThe test plants are then grown on, in a glasshouse (greenhouse) under controlled conditions (at either 24/18° C. or 20/16° C. (day/night) as mentioned above; 16 hours light; 65% humidity) and are watered twice daily. Either 14 or 15 days after application of the herbicide (14 or 15 DAA) (for post-emergence), or 20 days after application of the herbicide (20 DAA) (for pre-emergence), the test plants are evaluated visually, and an assessed percentage phytotoxicity score is given for each herbicidal application on each plant species (where 100%=total damage to plant; 0%=no damage to plant). […]"}, "Lolium perenne (LOLPE) [2]": {"tested_on": "Lolium perenne (LOLPE)", "assay": "Biological Example 1A glasshouse assay, post-emergence application", "conditions": "13 days after application", "experimental": "as §1\n(§2) Dicotyledonous weeds: ABUTH=Abutilon theophrasti; AMARE=Amaranthus retroflexus. Grassy monocotyledonous weeds: SETFA=Setaria faberi; ALOMY=Alopecurus myosuroides; ECHCG=Echinochloa crus-galli; ZEAMX=Zea mays (corn, maize, e.g. volunteer corn). For Compound A16, the grassy monocotyledonous weed LOLPE (Lolium perenne) was used in the test insterad of ALOMY."}, "[3]": {"tested_on": "Abutilon theophrasti (ABUTH)", "assay": "Biological Example 1A glasshouse assay, post-emergence application", "conditions": "312 h, 13 days after application, read-out: Percentage phytotoxicity ABUTH", "experimental": "as §1, §2"}, "[4]": {"tested_on": "Zea mays (ZEAMX, corn, maize, e.g. volunteer corn)", "assay": "Biological Example 1A glasshouse assay, post-emergence application", "conditions": "Zea mays, 312 h, post-emergence, 13 days after application, read-out: Percentage phytotoxicity ZEAMX", "experimental": "as §1, §2"}, "[5]": {"tested_on": "Amaranthus retroflexus (AMARE)", "assay": "Biological Example 1A glasshouse assay, post-emergence application", "conditions": "312 h, 13 days after application, read-out: Percentage phytotoxicity AMARE", "experimental": "as §1, §2"}, "[6]": {"tested_on": "Echinochloa crus-galli (ECHCG)", "assay": "Biological Example 1A glasshouse assay, post-emergence application", "conditions": "312 h, 13 days after application, read-out: Percentage phytotoxicity ECHCG", "experimental": "as §1, §2"}, "Setaria faberi (SETFA) [7]": {"tested_on": "Setaria faberi (SETFA)", "assay": "Biological Example 1A glasshouse assay, post-emergence application", "conditions": "Setaria faberi, 312 h, post-emergence, 13 days after application, read-out: Percentage phytotoxicity SETFA", "experimental": "as §1, §2"}, "Lolium perenne (LOLPE) [8]": {"tested_on": "Lolium perenne (LOLPE)", "assay": "Biological Example 1B glasshouse assay, pre-emergence application", "conditions": "250 g/ha, 13 days after application", "experimental": "as §1, §2"}, "[9]": {"tested_on": "Abutilon theophrasti (ABUTH)", "assay": "Biological Example 1B glasshouse assay, pre-emergence application", "conditions": "250 g/ha, 13 days after application", "experimental": "as §1, §2"}, "[10]": {"tested_on": "Zea mays (ZEAMX, corn, maize, e.g. volunteer corn)", "assay": "Biological Example 1B glasshouse assay, pre-emergence application", "conditions": "250 g/ha, 13 days after application", "experimental": "as §1, §2"}, "[11]": {"tested_on": "Amaranthus retroflexus (AMARE)", "assay": "Biological Example 1B glasshouse assay, pre-emergence application", "conditions": "250 g/ha, 13 days after application", "experimental": "as §1, §2"}, "[12]": {"tested_on": "Echinochloa crus-galli (ECHCG)", "assay": "Biological Example 1B glasshouse assay, pre-emergence application", "conditions": "250 g/ha, 13 days after application", "experimental": "as §1, §2"}, "Setaria faberi (SETFA) [13]": {"tested_on": "Setaria faberi (SETFA)", "assay": "Biological Example 1B glasshouse assay, pre-emergence application", "conditions": "250 g/ha, 13 days after application", "experimental": "as §1, §2"}},
  "data": [
    {"smiles": "CC#Cc1cc(F)c(C2C(=O)C3C(C2=O)[C@H]2CC[C@@H]3O2)c(OC)c1", "note": "(stereo partly shown) [Compound A16]", "values": [
      {"measurement": "post-emergent herbicidal potency against grassy monocotyledonous weeds (in words)", "setting": "[1]", "value": "potent post-emergent herbicides"},
      {"measurement": "Percentage phytotoxicity LOLPE", "setting": "Lolium perenne (LOLPE) [2]; 30 g/ha", "value": 70, "unit": "%"},
      {"measurement": "Percentage phytotoxicity LOLPE", "setting": "Lolium perenne (LOLPE) [2]; 250 g/ha", "value": 90, "unit": "%"},
      {"measurement": "pest or weed control at 30 g/ha", "setting": "[3]; 30 g/ha", "value": 0, "unit": "%"},
      {"measurement": "pest or weed control at 250 g/ha", "setting": "[3]; 250 g/ha", "value": 70, "unit": "%"},
      {"measurement": "pest or weed control at 30 g/ha", "setting": "[4]; 30 g/ha", "value": 90, "unit": "%"},
      {"measurement": "pest or weed control at 250 g/ha", "setting": "[4]; 250 g/ha", "value": 100, "unit": "%"},
      {"measurement": "pest or weed control at 30 g/ha", "setting": "[5]; 30 g/ha", "value": 0, "unit": "%"},
      {"measurement": "pest or weed control at 250 g/ha", "setting": "[5]; 250 g/ha", "value": 10, "unit": "%"},
      {"measurement": "pest or weed control at 30 g/ha", "setting": "[6]; 30 g/ha", "value": 90, "unit": "%"},
      {"measurement": "pest or weed control at 250 g/ha", "setting": "[6]; 250 g/ha", "value": 100, "unit": "%"},
      {"measurement": "pest or weed control at 30 g/ha", "setting": "Setaria faberi (SETFA) [7]; 30 g/ha", "value": 70, "unit": "%"},
      {"measurement": "pest or weed control at 250 g/ha", "setting": "Setaria faberi (SETFA) [7]; 250 g/ha", "value": 90, "unit": "%"},
      {"measurement": "Percentage phytotoxicity LOLPE", "setting": "Lolium perenne (LOLPE) [8]", "value": 90, "unit": "%"},
      {"measurement": "Percentage phytotoxicity ABUTH", "setting": "[9]", "value": 0, "unit": "%"},
      {"measurement": "Percentage phytotoxicity ZEAMX", "setting": "[10]", "value": 90, "unit": "%"},
      {"measurement": "Percentage phytotoxicity AMARE", "setting": "[11]", "value": 30, "unit": "%"},
      {"measurement": "Percentage phytotoxicity ECHCG", "setting": "[12]", "value": 90, "unit": "%"},
      {"measurement": "Percentage phytotoxicity SETFA", "setting": "Setaria faberi (SETFA) [13]", "value": 70, "unit": "%"}
    ]}
  ]
}
